Assay results reported in US6436365B2, “Process for therapeutic treatment of proliferative diseases” (Schering Aktiengesellschaft, priority 1997, dated 2002).

Key:
[1] = Topical administration via coronary perfusion/infusion catheter on arteriosclerotic lesion in the carotid artery, gamma camera measurement of activity at the lesion; type: in vivo, white New Zealand rabbit; settings: for % of the dose at the lesion (activity at the lesion as proportion of total activity in the animal): Example 1, rabbit no. 1708, 0.48 mCi in 0.85 ml; for % of the dose at the lesion (activity in the lesion as proportion of total activity in the animal): Example 2, rabbit no. 1856, 1.91 mCi in 1.0 ml
Method: The test animal, a white New Zealand rabbit (internal animal identification no.: 1708, male, 3.7 kg of body weight), was prepared 4 weeks before the actual administration experiment:
Under anesthesia (Rompun/Ketavet 1:2, 1 ml/kg of body weight, i.m. administration), the endothelium was damaged with a 2F Fogarthy balloon catheter in the arteria carotis dextra (balloon denudation). Then, the animal received a special diet with an addition of 0.2% cholesterol. The test animal developed an arteriosclerotic lesion on the balloon-denuded spot created by this pretreatment.
(§1) Topical administration of HMPAO that was labeled with technetium 99m was carried out on the anesthetized test animal (anesthesia type s.o.) via a coronary perfusion/infusion catheter (dispatch 3.0, Xtra slippery coating, manufacturer: Boston Scientific Corporation, Ratingen) directly on the lesion in the carotid artery. The radioactive dose of 0.48 mCi (=17.76 MBq) was administered in a volume of 0.85 ml.
(§2) During the entire experiment, the test animal was under a gamma camera (Elscint SP4 HR) to measure the dispersion of radioactivity in the body. The activity at the lesion was set as a proportion of the total activity (measured at this time in the animal). In the case of this test animal, there was found:
The test animal, a white New Zealand rabbit (internal animal identification no.: 1856, male, 3.3 kg of body weight), was prepared 4 weeks before the actual administration experiment as follows:
as §1, with “The topical administration” for “Topical administration”, “of the” for “of”, “of 1.91” for “of 0.48”, “mCi (=70.67” for “mCi (=17.76”, “of 1.0 ml (flushing with 0.3 ml of physiological saline solution).” for “of 0.85 ml.”
During the entire experiment, the test animal was under a gamma camera (Elscint SP4 HR) to measure the dispersion of radioactivity in the body. The activity in the lesion was set as a proportion of the total activity (measured at this time in the animal).

[2] = Topical administration via microperforated balloon catheter after balloon denudation of the infraranal aorta, gamma camera measurement of activity in the lesion; type: in vivo, white New Zealand rabbit
Method: The test animal was a white New Zealand rabbit (internal animal identification no.: 1584, male, 3.4 kg of body weight).
(§3) Under anesthesia (Rompun/Ketavet 1:2, 1 ml/kg of body weight, i.m. administration), the endothelium was damaged with a balloon catheter in the infraranal aorta (balloon denudation). Then, over a period of 5 minutes, technetium 99m-labeled HMPAO was administered to the test animal via a microperforated balloon catheter (4 mm Match-35 PTA, Schneider Company, FRG). The radioactive dose of 0.64 mCi (=23.68 MBq) was administered in a volume of 1 ml.
as §2, with “activity in” for “activity at”
The test animal was a white New Zealand rabbit (internal animal identification no.: 1587, male, 3.5 kg of body weight).
as §3, with “1.18” for “0.64”, “(=43.66” for “(=23.68”
The test animal was a white New Zealand rabbit (internal animal identification no.: 1586, male, 3.3 kg of body weight).
as §3, with “0.45” for “0.64”, “(=16.65” for “(=23.68”

## C/C(=N\O)C(C)NCC(C)(C)CNC(C)/C(C)=N/O (stereo not drawn) [Example 99mTc-HMPAO, metal not drawn]
[1]; 5 minutes post administration
  % of the dose at the lesion (activity at the lesion as proportion of total activity in the animal): 55.38%
  % of the dose at the lesion (activity in the lesion as proportion of total activity in the animal): 40.74%
[1]; 4 hours post administration
  % of the dose at the lesion (activity at the lesion as proportion of total activity in the animal): 46.78%
  % of the dose at the lesion (activity in the lesion as proportion of total activity in the animal): 35.13%
[1]; 24 hours post administration
  % of the dose at the lesion (activity at the lesion as proportion of total activity in the animal): 21.45%
  % of the dose at the lesion (activity in the lesion as proportion of total activity in the animal): 23.69%
[2]; 5 minutes post administration, Example 3, rabbit no. 1584, 0.64 mCi in 1 ml
  % of the dose at the lesion (activity in the lesion as proportion of total activity in the animal): 38.45%
[2]; 5 minutes post administration, Example 4, rabbit no. 1587, 1.18 mCi in 1 ml
  % of the dose at the lesion (activity in the lesion as proportion of total activity in the animal): 37.06%
[2]; 5 minutes post administration, Example 5, rabbit no. 1586, 0.45 mCi in 1 ml
  % of the dose at the lesion (activity in the lesion as proportion of total activity in the animal): 45.56%
[2]; 4 hours post administration, Example 3, rabbit no. 1584, 0.64 mCi in 1 ml
  % of the dose at the lesion (activity in the lesion as proportion of total activity in the animal): 35.64%
[2]; 4 hours post administration, Example 4, rabbit no. 1587, 1.18 mCi in 1 ml
  % of the dose at the lesion (activity in the lesion as proportion of total activity in the animal): 32.03%
[2]; 4 hours post administration, Example 5, rabbit no. 1586, 0.45 mCi in 1 ml
  % of the dose at the lesion (activity in the lesion as proportion of total activity in the animal): 36.39%
[2]; 24 hours post administration, Example 3, rabbit no. 1584, 0.64 mCi in 1 ml
  % of the dose at the lesion (activity in the lesion as proportion of total activity in the animal): 16.63%
[2]; 24 hours post administration, Example 4, rabbit no. 1587, 1.18 mCi in 1 ml
  % of the dose at the lesion (activity in the lesion as proportion of total activity in the animal): 20.01%
[2]; 24 hours post administration, Example 5, rabbit no. 1586, 0.45 mCi in 1 ml
  % of the dose at the lesion (activity in the lesion as proportion of total activity in the animal): 15.24%
